Measurements as given in patent US20180282279A1, “Pantothenamide Analogues” (Radboud Universitair Medisch Centrum, priority 2014, published 2018).

Columns and labels:
[1] = system: Plasmodium falciparum NF54 parasites; test: P. falciparum asexual blood stage replication assay (SYBR Green); type: cell-based; conditions: NF54, 10% human serum, 72 incubation
Protocol: Compounds were tested on their ability to inhibit replication of the human malaria parasite Plasmodium falciparum. To this end, Plasmodium falciparum NF54 parasites were cultured in RPMI1640 medium supplemented with 367 μM hypoxanthine, 25 mM HEPES, 25 mM sodiumbicarbonate and 10% human type A serum in an automated large-scale culture system as described before (Transactions of the Royal Society of Tropical Medicine and Hygiene, 1982. 76: p. 812-818). Compounds were diluted in DMSO and subsequently in culture medium to reach a DMSO concentration of 0.2%. 50 μl of diluted compound was transferred to a black 96 well plate. A culture of P. falciparum strain NF54 malaria parasites was diluted to a parasitaemia of 0.5% and a hematocrit of 3%. 50 μl of this diluted culture was added to each well in the 96 well plate._The outermost wells of the plate were filled with sterile water to prevent evaporation. The established antimalarial dihydroartemisinin (DHA) in DMSO acted as a positive control (MIN signal), and 0.1% DMSO acted as a negative control (MAX signal). The plates were incubated for 72 at 37° C., 3% 02, 5% CO2, 93% N2. Changes in parasite replication relative to the controls were monitored using the DNA-marker SYBR Green as described previously (Antimicrob Agents Chemother 48:1803-6). Data were analyzed by logistic regression using the formula: Y=Bottom+(Top-Bottom)/(1+10̂((Log IC50−X)*HillSlope)) and a least squares method to find the best fit.
Using similar methods, IC50 values were determined for a variety of inverted pantothenamides, as listed in table 1 (see section: ‘Detailed description of the invention’)

[2] = system: P. falciparum gametocytes; test: microbe, parasite or virus in culture; type: cell-based, Plasmodium falciparum; conditions: for IC50: 72 hour incubation, read-out: Gametocyte viability (pLDH) IC50; for effect on gametocyte viability (pLDH activity): FIG. 4A; for extent of inhibition of gametocyte viability: compared with reference compound DHA
Protocol: Compounds were tested for their ability to affect the viability of gametocytes, the sexually committed blood stages of P. falciparum that underlie transmission to the mosquito vector. To this end, two different assays were performed. The first assay monitored pLDH activity as a measure of viability of gametocytes (J Antimicrob Chemother. 2013 September; 68(9):2048-58). The second assay monitored the ability of gametocytes to form a female gamete by detection of the gamete-specific marker Pfs25. Plasmodium falciparum NF54 parasites were cultured in RPMI1640 medium supplemented with 367 μM hypoxanthine, 25 mM HEPES, 25 mM sodiumbicarbonate and 10% human type A serum in an automated large-scale culture system as described before (Transactions of the Royal Society of Tropical Medicine and Hygiene, 1982. 76: p. 812-818). Cultures were treated with 50 mM N-acetyl-D-glucosamine from day 4 till day 9 to kill asexual parasites. On day 11 gametocytes were isolated by discontinuous 63% Percoll gradient centrifugation. Compounds were diluted in DMSO and subsequently in culture medium to reach a DMSO concentration of 0.2%. To measure the effect of compounds of pLDH activity, gametocytes were seeded at a density of 3.5×10^4 gametocytes per well in a black 384 well plate in 30 μl of culture medium, and 30 μl of diluted compound was added. Following a 72 hour incubation at 37° C., 98% humidity, 93% N2, 4% CO2 and 3% O2, gametocyte viability was measured by a modified plasmodium lactate dehydrogenase assay by using resazurin as a substrate as previously described (Nature, 2013. 504(7479): p. 248-53). Assays were performed in quadruplicate (two different plates with two different gametocyte batches) and all plates included controls MIN (1 μM DHA), MAX (0.1% DMSO) and a serial dilution of reference compound dihydroartemisinin (DHA).

[3] = system: P. falciparum gametocytes; test: Gametocyte female gametogenesis capacity assay (Pfs25 AlphaLISA); type: cell-based; conditions: Plasmodium falciparum, 72 hours incubation
Protocol: To monitor compound effects on the ability of a gametocyte to form a female gamete, day 11 (stage IV) gametocytes were seeded at a density of 4×10^5 gametocytes per well in a V-bottom plate in 50 μl culture medium. 50 μl of diluted compound was added to the gametocytes (0.1% DMSO final concentration) and plates were incubated for 72 hours at 37° C., 98% humidity, 93% N2, 4% CO2 and 3% O2. Subsequently, gametogenesis was induced by adding xanthurenic acid to a final concentration of 40 μM and plates were incubated for 16 hours at 20° C. Gametes were detected in a homogeneous proximity immunoassay on basis of Pfs25 expression by use of AlphaLISA technology (Perkin Elmer). All steps were performed at 20° C. Gametes were washed twice with PBS, lysed for 15 min in 10 μl 10 mM Tris pH 8.0/1% laurylsarcosyl/1 mM phenylmethanesulfonyl fluoride and combined with 10 μl 5 nM biotinylated mouse anti-Pfs25 monoclonal antibody 32F6244 in a white 384 well optiplate (Perkin Elmer). After 1 hour incubation 15 μl of 33 μg/ml acceptorbeads coated with mouse anti-Pfs25 monoclonal antibody 32F81 were added. After 1 hour incubation, 15 μl 33 μg/ml Streptavidin-conjugated donorbeads were added. Finally, after 1 hour incubation luminescence signals were monitored at the 615 nm emission wavelength following excitation at 680 nm using a fluorometer (Biotek Synergy 2). All compounds were tested in duplicate (24 hr) or triplicate (1 and 72 hr). Controls included MIN (0.1 μM epoxomicin) and MAX (0.1% DMSO). Data were analyzed by logistic regression using the formula: Y=Bottom+(Top−Bottom)/(1+10̂((Log IC50−X)*HillSlope)) and a least squares method to find the best fit.

[4] = system: P. falciparum asexual blood stage parasites; test: Asexual replication assay in competition with pantothenate; type: cell-based, Plasmodium falciparum; conditions: log dose ratio −1 vs log pantothenate concentration
Protocol: FIG. 3: Competition between pantothenic acid and inverted-amide pantothenamide. Asexual replication assays were performed in combinations of pantothenic acid (PA) and CXP18.6-017 (A), CXP18.6-026 (B) and CXP18.6-052 (C). The relative number of parasites was determined by a Sybrgreen DNA detection method. Data are expressed relative to the MAX (0.1% DMSO) and MIN (10 μM DHA) controls. Error bars indicate standard deviations from two independent observations. D) S child regression analysis of combinations of CXP18.6-052 and pantothenic acid.
To study their interaction with pantothenate-dependent pathways, asexual replication assays were performed with CXP18.6-017, CXP18.6-026 and CXP18.6-052 in the presence of increasing amounts pantothenate. When combining a pantothenamide analogue and pantothenate in the same well the conditions were otherwise similar to the single compound assays described above, however the final DMSO concentration was 0.2%, which was also adjusted for the positive and negative controls.

[5] = Table 3, read-out: Gametocyte gametogenesis capacity (Pfs25) IC50
[6] = FIG. 4B, read-out: female gametogenesis capacity of gametocytes IC50

Row | SMILES | IC50 [1] [µM] | IC50 ([2]; Plasmodium falciparum) [nM] | IC50 [3, 5] [nM] | Schild regression analysis with pantothenate [4] | effect on gametocyte viability (pLDH activity) [2] | extent of inhibition of gametocyte viability [2] | IC50 [3, 6] [nM] | maximum inhibition of gametocyte viability ([2]; Plasmodium falciparum, 72 h) [%]
1 | CC(C)(CO)[C@@H](O)C(=O)NCCNC(=O)CCc1ccccc1 [CXP18.6-006] | 0.12 | > 10000 | 478 | – | – | – | – | –
2 | CC(C)(CO)[C@@H](O)C(=O)NCCNC(=O)CCc1ccccc1F [CXP18.6-017] | 0.022 | 100 | 36 | did not reveal a linear correlation | dose dependently reduced gametocyte viability | to the same extent as the reference compound DHA | 37 | –
3 | Cc1ccc(CCC(=O)NCCNC(=O)[C@H](O)C(C)(C)CO)cc1 [CXP18.6-026] | 0.16 | 170 | 13 | did not reveal a linear correlation | dose dependently reduced gametocyte viability | to the same extent as the reference compound DHA | 13 | –
4 | CC(C)(CO)[C@@H](O)C(=O)NCCNC(=O)CCc1cccnc1 [CXP18.6-052] | 0.008 | – | – | competitive antagonism | dose dependently reduced gametocyte viability | – | 1970 | ~50
